# Test system: FPGS^ko cells
# Assay: Chemical complementation (nutrient supplementation) of FPGS mutants (FIG. 14)
# Format: cell-based, human
# Protocol: The growth medium was supplemented with 1 and 2× essential amino acids (EAAs), and cells were grown for […] (A2-A3). Additionally, to check the growth behavior of the mutant in a different basal medium, regular DMEM and IMDM with 1×NEAAs were tested. To rescue the phenotype of FPGS^ko, 5-CHO-THF (1 mM) with sodium hypoxanthine (10 mM) and thymidine (1.6 mM) mixture (HT; Thermo Fisher Scientific) was exogenously applied to IMDM, respectively (A5, A6), and compared with the FPGS^ko cells (A1) and WT cells […] grown with only solvent as a control. […] All the experiments were carried out in triplicate and cell proliferation was measured using a Cellometer. The number of cells for each cell line is compared with the number of colonies for parental 293T cells. Error bars indicate means±SE (n=4). *P<0.05, **P<0.001.
# Chemical complementation assays of FPGS mutants: Cells were maintained as monolayers in DMEM with Gluta-Max (Corning) supplemented with 10% FBS at 37° C. in a 5% CO2 atmosphere. To supplement the growth medium with amino acids, 1× and 2× doses of essential amino acids (Thermo Fisher Scientific) were added in the medium and the cells were grown as previously described for 5 days. […] All the experiments were carried out in triplicate, and cell proliferation was measured using a Cellometer Auto T4 Counting Chamber (Nexcelom Bioscience, Lawrence, MA, USA). […]
smiles,measurement,setting,value
"Nc1nc2c(c(=O)[nH]1)N(C=O)[C@@H](CNc1ccc(C(=O)N[C@@H](CCC(=O)O)C(=O)O)cc1)CN2 [5-CHO-THF, 6S-5-formyl-5,6,7,8-tetrahydrofolic acid]",cell growth of FPGS^ko mutant,IMDM supplemented with 1 mM 5-CHO-THF and 1×NEAAs,substantial increases in cell growth
same,growth rate of FPGS^ko mutant,"IMDM with 1 mM 5-CHO-THF, 1×NEAAs, hypoxanthine (10 mM) and thymidine (1.6 mM)",almost full restoration of growth rate
